From patent US6710075B2, “Therapeutic compounds and methods” (The Government of the State of Sarawak, Malaysia, priority 2000, dated 2004)

Key:
[1] = test system: A549 cells; test: Effect on cell cycle arrest and cell death induced by anti-cancer agents, DNA content analysis; format: cell-based; settings: 3 days
Description: A549 cells in 6 well plates were cultured for 3 days in the presence or absence of 10 nM Compound A together with 0.1 μM camptothecin, 10 μM vinblastin, 1 μM paclitaxel or 1 μM staurosporine as indicated. The cells were then collected and fixed in 70% ethanol prior to staining with propidium iodide and DNA content determined by flow cytometry. The numbers indicate the % of cells in the various cell cycle phases relative to all cells with ≧2N DNA content and also the % dead cells (ie. subdiploid ≦2N cells) to the left of the dotted marker that arose during the culture period.
This was examined in more detail using DNA content analysis to specifically measure cell cycle progression and cell death. In this experiment in addition to camptothecin and paclitaxel cells were also treated with vinblastin (another microtubule inhibitor) (Sorger et al., 1997, supra) and staurosporine (a kinase inhibitor) (Gescher, Crit Rev Oncol Hematol., 2000, 34(2):127-35).

[2] = test system: THP-1 cells; test: WST-1 reduction by THP-1 cells; format: cell-based, human
Source text: (§1) (a) Compounds A and B were identified from a bark sample of Aglaia leptantha through their ability to inhibit production of Tumour Necrosis Factor-α (TNF-α) by THP-1 human promonocytic leukemia cells (Tsuchiya, et al, Int. J. Cancer, 1980, 26(2):171-6) activated with lipopolysaccharide (LPS). Table 4 summarises the results comparing the activity of Compounds A and B for inhibition of TNF-α production to their effects on general cell metabolism measured using WST-1 reduction, DNA synthesis and protein synthesis assays for THP-1 cells. […] For comparison, the effects of Compounds A and B on A549 lung epithelial carcinoma cells (Leiber et al, Int. J. Cancer, 1976, 17(1)-62-70) were also measured and the data is also included in Table 4.

[3] = test system: A549; test: Cytostatic activity, relative cell number by YOYO-1 DNA dye; format: cell-based, human; settings: Homo sapiens, 72 h; A549, lung; read-out: GI50 (3 day cultures)
Description: (§2) (b) Compound A was assessed for cytotoxic and cytostatic activity against a panel of cell lines derived from a variety of human tumour types in addition to THP-1 and A549 cells (Table 5). These included K562 leukemic cells (Lozzio and Lozzio, 1975, Blood 45:321-34), PC3 prostate tumour cells (Kaighn et al., 1979, Invest. Urol. 17:16-23) and SF268 glioblastoma cells (Westphal et al, 1985, Biochem. Biophys. Res. Commun., 132:284-9). […] However, the cytotoxic potency of Compound A increased dramatically after 6 days of culture for the K562, A549 and SF268 cells.

[4] = test system: A549 cells; test: Cell death as loss of membrane integrity, YOYO-1 uptake; format: cell-based; settings: Homo sapiens, A549, 72 h, read-out: LC50
Source text: (§3) (a) Table 8 compares the cytostatic and cytotoxic effects of Compound A to three previously identified 1H-cyclopenta[b]benzofuran lignans that lack the dioxanyloxy group at the C6-position. The reference compounds are: Rocaglaol (Reference Compound 1) (Ohse et al., J Nat Prod, 1996, 59(7):650-52); 4′-Demethoxy-3′,4′-methylenedioxyrocaglaol (Reference Compound 2) and Methyl 4′-demethoxy-3′,4′-methylenedioxyrocaglate (Reference Compound 3) (Lee et al., Chem Biol Interact, 1998, 115(3):215-28).

[5] = test system: THP-1 cells; test: as above; format: cell-based; settings: Homo sapiens, THP-1, 72 h, read-out: LC50
Source text: as §3

[6] = test system: A549 cells; test: DNA synthesis, [14C]-thymidine uptake, A549 cells; format: cell-based, human; settings: 72 hours
Source text: as §1

[7] = test system: K562 leukemic cells; test: DNA content analysis (cell cycle) of K562 leukemic cells; format: cell-based, human; settings: K562, 10-15 nM, 3 days
Description: K562 cells were cultured for 3 days with the indicated concentration of Compounds A or B then collected and fixed in 70% ethanol prior to staining with propidium iodide and DNA content determined by flow cytometry. The numbers indicate the % of cells in G0/G1, S and G2/M phases of the cell cycle respectively relative to all cells with ≧2N DNA content.

[8] = test system: Intercellular Adhesion Molecule-1 (ICAM-1); test: IL-1-induced ICAM-1 surface expression by A549 cells (Delfia); format: cell-based, human; settings: 24 hours, read-out: IC50 ICAM-1 Production
Source text: as §1

[9] = test system: Tumour Necrosis Factor-α (TNF-α); test: Inhibition of TNF-α production by LPS-activated THP-1 cells (sandwich ELISA); format: cell-based, human; settings: 18 hours
Source text: as §1

[10] = test system: THP-1 cells; test: DNA synthesis, [14C]-thymidine uptake, THP-1 cells; format: cell-based, human; settings: 48 hours
Source text: as §1

[11] = test system: THP-1 cells; test: Protein synthesis, [14C]-leucine uptake, THP-1 cells; format: cell-based, human; settings: 48 hours
Source text: as §1

[12] = test system: A549 cells; test: Protein synthesis, [14C]-leucine uptake, A549 cells; format: cell-based, human; settings: 72 hours
Source text: as §1

[13] = test system: K562; test: Cytotoxic activity, sub-diploid DNA content by flow cytometry (propidium iodide); format: cell-based, human; settings: K562, 6 days; read-out: LC50 (6 day cultures)
Description: as §2

[14] = test system: PC3; test: as above; format: cell-based, human; settings: PC3, 6 days; read-out: LC50 (6 day cultures)
Description: as §2

[15] = test system: A549; test: as above; format: cell-based, human; settings: A549, 6 days; read-out: LC50 (6 day cultures)
Description: as §2

[16] = test system: SF268; test: as above; format: cell-based, human; settings: SF268, 6 days; read-out: LC50 (6 day cultures)
Description: as §2

[17] = test system: THP-1; test: as above; format: cell-based, human; settings: THP-1, 6 days; read-out: LC50 (6 day cultures)
Description: as §2

[18] = test system: A549 cells; test: Senescence-associated β-galactosidase (SA-β-gal) activity staining; format: cell-based, human; settings: A549, 250 nM doxorubicin, 10 days
Description: A549 cells were seeded at 10,000 cell/well in 6 well plates in the presence or absence of varying concentrations of Compound A (10-50 nM) or 250 nM doxorubicin for 10 days prior to their processing and staining overnight for senescence-associated β-galactosidase activity as described previously (Dimri et al., 1995, Proc Natl Acad Sci USA 1995 92(20):9363-7). […] PC, phase contrast microscopy. BF, bright field microscopy Magnification×200.
This was evaluated further by measuring senescence-associated β-galactosidase (SA-β-gal) activity, a biomarker previously described to correlate well with senescence of human cells (Dimri et al., Proc Natl Acad Sci USA 1995 92(20):9363-7). […] Therefore, in addition to Compound A A549 cells were also treated with doxorubicin as an experimental control.

[19] = test system: THP-1 cells; test: DNA content analysis (cell cycle and viability) of THP-1 cells; format: cell-based, human; settings: THP-1, 1000 nM paclitaxel, 2 days
Description: THP-1 cells were cultured for 2 days with the indicated concentration of Compound A or 1000 nM paclitaxel then collected and fixed in 70% ethanol prior to staining with propidium iodide and DNA content determined by flow cytometry. The numbers indicate the % of cells in the various cell cycle phases relative to all cells with ≧2N DNA content and also the % dead cells (ie. subdiploid≦2N cells) to the left of the marker (the vertical line) that arose during the culture period.

[20] = THP-1 leukemic cells, cultured with compound for 3 days, read-out: IC50 (reduction of WST-1)

With `CC[C@]1(O)C[C@@H]2CN(CCc3c([nH]c4ccccc34)[C@@](C(=O)OC)(c3cc4c(cc3OC)N(C)[C@H]3[C@@](O)(C(=O)OC)[C@H](OC(C)=O)[C@]5(CC)C=CCN6CC[C@]43[C@@H]65)C2)C1` [vinblastin, reference compound] the “cell cycle phase accumulation” value ([1]; A549, 10 μM vinblastin) was “majority of cells arresting in the G2/M phases of the cell cycle”.
In the case of `COC(=O)[C@H]1[C@@H](O)[C@@]2(O)c3c(OC)cc(OC4OC(C(COC(C)=O)OC(C)=O)COC4OC)cc3O[C@@]2(c2ccc(OC)cc2)[C@@H]1c1ccccc1` (stereo partly drawn) [Compound A′], the IC50 [2, 20] is reported as 0.3 nM.
With `COc1ccc(C23Oc4cc(OC)cc(OC)c4C2(O)C(O)CC3c2ccccc2)cc1` (stereo not drawn) [Reference Compound 1, Rocaglaol] the GI50 [3] was 3980 nM, the CC50 [4] was greater than 5000 nM and the CC50 [5] was greater than 5000 nM.
Work on `COC(=O)[C@H]1[C@@H](O)[C@@]2(O)c3c(OC)cc(OC4OC(C(O)CO)COC4OC)cc3O[C@@]2(c2ccc(OC)cc2)[C@@H]1c1ccccc1` (single isomer, unassigned) [Compound B] yielded an IC50 [6] of 4 nM, an IC50 ([2]; THP-1 cells, 18 hours of culture, read-out: IC50 WST-1 Reduction) of 40 nM and an IC50 [2, 20] of 1.5 nM. The “cell cycle phase accumulation” value [7] was “characteristic accumulation of cells in G2/M phases of the cell cycle”, the IC50 [8] was 5000 nM and the IC50 [9] was 15 nM. It also gave an IC50 [10] of 3 nM, an IC50 [11] of 3 nM and an IC50 [12] of 10 nM. It also gave a CC50 [13] of 15 nM, a CC50 [14] of 12 nM and a CC50 [15] of 12 nM. It also gave a CC50 [16] of 22 nM and a CC50 [17] of 15 nM.
Work on `COC(=O)[C@H]1[C@@H](O)[C@@]2(O)c3c(OC)cc(OC4OC(C(COC(C)=O)OC(C)=O)COC4OC)cc3O[C@@]2(c2ccc(OC)cc2)[C@@H]1c1ccccc1` (stereo partly drawn) [Compound B′] yielded an IC50 [2, 20] of 0.7 nM.
In the case of `COC(=O)C1C(O)C2(O)c3c(OC)cc(OC)cc3OC2(c2ccc3c(c2)OCO3)C1c1ccccc1` (stereo not drawn) [Reference Compound 3, Methyl 4′-demethoxy-3′,4′-methylenedioxyrocaglate], the GI50 [3] is reported as 56 nM, the CC50 [4] is reported as greater than 5000 nM and the CC50 [5] is reported as greater than 5000 nM.
`COc1cccc2c1C(=O)c1c(O)c3c(c(O)c1C2=O)C[C@@](O)(C(=O)CO)C[C@@H]3O[C@H]1C[C@H](N)[C@H](O)[C@H](C)O1` [doxorubicin, reference compound] was tested, and the SA-β-gal activity [18] was “exhibited SA-β-gal activity”.
In the case of `COc1cc(OC)c2c(c1)OC1(c3ccc4c(c3)OCO4)C(c3ccccc3)CC(O)C21O` (stereo not drawn) [Reference Compound 2, 4′-Demethoxy-3′,4′-methylenedioxyrocaglaol], the GI50 [3] is reported as 389 nM, the CC50 [4] is reported as greater than 5000 nM and the CC50 [5] is reported as greater than 5000 nM.
With `CC[C@@]1(O)C(=O)OCc2c1cc1n(c2=O)Cc2cc3ccccc3nc2-1` [camptothecin, reference compound] the “cell cycle phase accumulation” value ([1]; A549, 0.1 μM camptothecin) was “accumulation of cells in S phase of the cell cycle”.
`CC(=O)O[C@H]1C(=O)[C@@]2(C)[C@H]([C@H](OC(=O)c3ccccc3)[C@]3(O)C[C@H](OC(=O)[C@H](O)[C@@H](NC(=O)c4ccccc4)c4ccccc4)C(C)=C1C3(C)C)[C@]1(OC(C)=O)CO[C@@H]1C[C@@H]2O` [paclitaxel, reference compound] was tested, and the “cell cycle phase accumulation” value [19] was “caused cells to accumulate in the G2/M phases of the cell cycle” and the “cell cycle phase accumulation” value ([1]; A549, 1 μM paclitaxel) was “majority of cells arresting in the G2/M phases of the cell cycle”.
